Reference: patent US11542225B2, “Lipids for use in lipid nanoparticle formulations” (ACUITAS THERAPEUTICS, INC., priority 2017, dated 2023)
Like-named read-outs stand apart in the source and are kept apart here.

How the values were obtained:
[1] = Determination of pKa of formulated lipids (TNS fluorescence assay in lipid nanoparticles); type: physicochemical
Text: As described elsewhere, the pKa of formulated lipids was correlated with the effectiveness of LNPs for delivery of nucleic acids (see Jayaraman et al, Angewandte Chemie, International Edition (2012), 51(34), 8529-8533; Semple et al, Nature Biotechnology 28, 172-176 (2010)). In some embodiments, the preferred range of pKa was ˜5 to ˜7. […] Lipid nanoparticles comprising compound of structure (I)/DSPC/cholesterol/PEG-lipid (50/10/38.5/1.5 or 47.5:10:40.8:1.7 mol %) in PBS at a concentration of 0.4 mM total lipid were prepared using the in-line process as described in Example 1. TNS was prepared as a 100 μM stock solution in distilled water. Vesicles were diluted to 24 μM lipid in 2 mL of buffered solutions containing 10 mM HEPES, 10 mM MES, 10 mM ammonium acetate, and 130 mM NaCl, where the pH ranged from 2.5 to 11. An aliquot of the TNS solution was added to give a final concentration of 1 μM and following vortex mixing fluorescence intensity was measured at room temperature in a SLM Aminco Series 2 Luminescence Spectrophotometer using excitation and emission wavelengths of 321 nm and 445 nm. A sigmoidal best fit analysis was applied to the fluorescence data and the pKa was measured as the pH giving rise to half-maximal fluorescence intensity.

[2] = tested on: luciferase expression in the liver; experiment: Luciferase mRNA in vivo evaluation using lipid nanoparticle compositions; parameters: species or system mice; settings: novel lipids; values marked * in the 1.0 mg/kg column: dosed at 0.5 mg/kg; tail vein injection, 4 hours after administration
[3] = tested on: luciferase expression in the liver; experiment: as above; parameters: species or system mice; settings: for Liver Luc @ 0.3 mg/kg (ng luc/g liver) / Liver Luc @ 1.0 mg/kg (ng luc/g liver): novel lipids, tail vein injection, 4 hours after administration; for Liver Luc @ 0.3 mg/kg (ng luc/g liver): 0.3 mg mRNA/kg; for Liver Luc @ 1.0 mg/kg (ng luc/g liver): 1.0 mg mRNA/kg
Experimental: A lipid of structure (I), DSPC, cholesterol and PEG-lipid were solubilized in ethanol at a molar ratio of 50:10:38.5:1.5 or 47.5:10:40.8:1.7. Lipid nanoparticles (LNP) were prepared at a total lipid to mRNA weight ratio of approximately 10:1 to 30:1. Briefly, the mRNA was diluted to 0.2 mg/mL in 10 to 50 mM citrate buffer, pH 4. Syringe pumps were used to mix the ethanolic lipid solution with the mRNA aqueous solution at a ratio of about 1:5 to 1:3 (vol/vol) with total flow rates above 15 mL/min. The ethanol was then removed and the external buffer replaced with PBS by dialysis. Finally, the lipid nanoparticles were filtered through a 0.2 μm pore sterile filter.
Studies were performed in 6-8 week old female C57BL/6 mice (Charles River) 8-10 week old CD-1 (Harlan) mice (Charles River) according to guidelines established by an institutional animal cwere committee (ACC) and the Canadian Council on Animal Cwere (CCAC). Varying doses of mRNA-lipid nanoparticle were systemically administered by tail vein injection and animals euthanized at a specific time point (e.g., 4 hours) post-administration. Liver and spleen were collected in pre-weighed tubes, weights determined, immediately snap frozen in liquid nitrogen and stored at −80° C. until processing for analysis.
For liver, approximately 50 mg was dissected for analyses in a 2 mL FastPrep tubes (MP Biomedicals, Solon Ohio). ¼″ ceramic sphere (MP Biomedicals) was added to each tube and 500 μL of Glo Lysis Buffer—GLB (Promega, Madison Wis.) equilibrated to room temperature was added to liver tissue. Liver tissues were homogenized with the FastPrep24 instrument (MP Biomedicals) at 2×6.0 m/s for 15 seconds. Homogenate was incubated at room temperature for 5 minutes prior to a 1:4 dilution in GLB and assessed using SteadyGlo Luciferase assay system (Promega). Specifically, 50 μL of diluted twassue homogenate was reacted with 50 μL of SteadyGlo substrate, shaken for 10 seconds followed by 5 minute incubation and then quantitated using a CentroXS^3 LB 960 luminometer (Berthold Technologies, Germany). The amount of protein assayed was determined by using the BCA protein assay kit (Pierce, Rockford, Ill.). Relative luminescence units (RLU) were then normalized to total μg protein assayed. To convert RLU to ng luciferase a standard curve was generated with QuantiLum Recombinant Luciferase (Promega).
The FLuc mRNA (L-6107) from Trilink Biotechnologies will express a luciferase protein, originally isolated from the firefly, Photinus pyralwas. FLuc was commonly used in mammalian cell culture to measure both gene expression and cell viability. It emits bioluminescence in the presence of the substrate, luciferin. This capped and polyadenylated mRNA was fully substituted with 5-methylcytidine and pseudouridine.
Compounds of structure (I) were formulated using the following molar ratio: 47.5% cationic lipid/10% dwastearoylphosphatidylcholine (DSPC)/40.8% Cholesterol/1.7% PEG lipid (“PEG-DMA” 2-[2-(ω-methoxy(polyethyleneglycol2000)ethoxy]-N,N-ditetradecylacetamide). Relative activity was determined by measuring luciferase expression in the liver 4 hours following administration via tail vein injection as described in Example 1. The activity was compared at a dose of 0.3 and 1.0 mg mRNA/kg and expressed as ng luciferase/g liver measured 4 hours after administration, as described in Example 1.
The cationic lipids shown in Table 2 have previously been tested with nucleic acids. For comparative purposes, these lipids were also used to formulate lipid nanoparticles containing the FLuc mRNA (L-6107) using an in line mixing method, as described in Example 1 and in PCT/US10/22614, which is hereby incorporated by reference in its entirety. […]

[4] = Table 3, lipid formulated in LNP, TNS assay

| pKa [1, 4] | pKa [1] | SMILES | Liver Luc (ng luc/g liver), dosed at 0.5 mg/kg [2] | Relative activity in the luciferase assay relative to MC3 ([3]; luciferase expression in liver 4 hours after tail vein injection, 47.5/10/40.8/1.7 formulation with PEG-DMA) | Liver Luc @ 0.3 mg/kg (ng luc/g liver) [3] [ng luc/g liver] | Liver Luc @ 1.0 mg/kg (ng luc/g liver) [3] [ng luc/g liver] |
| --- | --- | --- | --- | --- | --- | --- |
| 6.18 | – | CCCCCCCCC(CCCCCC)COC(=O)CCCCCCCN(CCCCCCCC(=O)OCC(CCCCCC)CCCCCCCC)CCCCOCC(O)C(O)COCCCCN(CCCCCCCC(=O)OCC(CCCCCC)CCCCCCCC)CCCCCCCC(=O)OCC(CCCCCC)CCCCCCCC (stereo not shown) [Compound 1] | 174 ± 43* ng luc/g liver | – | – | – |
| – | 6.14 | CCCCCCCCC(CCCCCC)COC(=O)CCCCCN(CCCCCC(=O)OCC(CCCCCC)CCCCCCCC)CCCOCC(O)C(O)COCCCN(CCCCCC(=O)OCC(CCCCCC)CCCCCCCC)CCCCCC(=O)OCC(CCCCCC)CCCCCCCC (stereo not shown) [Compound 2] | – | 4.4 | 1225 ± 159 | 4876 ± 1273 |
| 5.3 | – | CCCCCCCCC(CCCCCC)COC(=O)CCCCCN(CCCCCC(=O)OCC(CCCCCC)CCCCCCCC)CCCOCCOCCOCCCN(CCCCCC(=O)OCC(CCCCCC)CCCCCCCC)CCCCCC(=O)OCC(CCCCCC)CCCCCCCC (stereo not shown) [Compound 3] | – | – | 33 ± 9 | 99 ± 41 |
| – | 7.2 | CCCCCCCCC(CCCCCC)COC(=O)CCCCCC(CCCCCC(=O)OCC(CCCCCC)CCCCCCCC)NCCCOCCOCCOCCCNC(CCCCCC(=O)OCC(CCCCCC)CCCCCCCC)CCCCCC(=O)OCC(CCCCCC)CCCCCCCC (stereo not shown) [Compound 4] | – | – | – | – |
| – | 4.24 | CCCCCCCCC(CCCCCC)C(=O)OCCCCCCCCCC(CCCCCCCCCOC(=O)C(CCCCCC)CCCCCCCC)OC(=O)CCCCNCCCCN(C)CCCCC(=O)OC(CCCCCCCCCOC(=O)C(CCCCCC)CCCCCCCC)CCCCCCCCCOC(=O)C(CCCCCC)CCCCCCCC (stereo not shown) [Compound 5] | – | – | – | – |
| 5.81 | – | CCCCCCCCC(CCCCCC)COC(=O)CCCCCN(CCCCCC(=O)OCC(CCCCCC)CCCCCCCC)CCCN(C)CCCN(CCCCCC(=O)OCC(CCCCCC)CCCCCCCC)CCCCCC(=O)OCC(CCCCCC)CCCCCCCC (stereo not shown) [Compound 6] | – | – | 92 ± 13 | 169 ± 46 |
| 5.91 | – | CCCCCCC(CCCC)COC(=O)CCCCCN(CCCCCC(=O)OCC(CCCC)CCCCCC)CCCN(C)CCCN(CCCCCC(=O)OCC(CCCC)CCCCCC)CCCCCC(=O)OCC(CCCC)CCCCCC (stereo not shown) [Compound 7] | – | – | 590 ± 98 | 2473 ± 443 |
| 6.53 | – | CCCCCCCCC(CCCCCC)COC(=O)CCCCCC(CCCCCC(=O)OCC(CCCCCC)CCCCCCCC)NCCCOCCOCCOCCCN(CCCCCC(=O)OCC(CCCCCC)CCCCCCCC)CCCCCC(=O)OCC(CCCCCC)CCCCCCCC (stereo not shown) [Compound 8] | 479 ± 163* ng luc/g liver | – | – | – |
